From ChEMBL document CHEMBL4419178, “Yap1 inhibitors that target the interaction of yap1 with oct4” (2018)
Active and inactive are the calls of the source. The rule behind the calls is not given here.

Legend:
[1] = target: Transcriptional coactivator YAP1 (Homo sapiens) (UniProt P46937); test: Inhibition of YAP1 in human NCI-H1650 cells assessed as disruption in YAP1/OCT4 interaction at 5 uM incubated for 72 hrs by immunoprecipitation-Westem blot assay; assay type: cell-based
[2] = target: Transcriptional coactivator YAP1 (Homo sapiens) (UniProt P46937); test: Inhibition of YAP1 in human A549 cells assessed as disruption in YAP1/OCT4 interaction at 5 uM incubated for 72 hrs by immunoprecipitation-Westem blot assay; assay type: cell-based
[3] = system: NCI-H1650; test: Inhibition of self-renewal capacity in stem-like side-population cells of human NCI-H1650 cells assessed as reduction in number of spheres at 1 to 20 uM incubated for 10 days by sphere formation assay; assay type: functional, cell-based
[4] = system: NCI-H1650; test: Cytotoxicity in human NCI-H1650 cells assessed as reduction in cell viability at 0.5 to 20 uM incubated for 72 hrs by MTT assay; assay type: functional, cell-based
[5] = system: A549; test: Cytotoxicity in human A549 cells assessed as reduction in cell viability at 0.5 to 20 uM incubated for 72 hrs by MTT assay; assay type: functional, cell-based
[6] = target: Transcriptional coactivator YAP1 (Homo sapiens) (UniProt P46937); test: Inhibition of YAP1 in human NCI-H1650 cells assessed as reduction in Sox2 protein expression at 5 uM by luciferase reporter gene assay; assay type: cell-based
[7] = system: NCI-H1650; test: Inhibition of self-renewal capacity in stem-like side-population cells of human NCI-H1650 cells assessed as reduction in number of spheres at 5 uM incubated for 10 days by sphere formation assay relative to control; assay type: functional; conditions: NCI-H1650, 240 h
[8] = system: NCI-H1703; test: Cytotoxicity in human NCI-H1703 cells assessed as reduction in cell viability at 0.5 to 20 uM incubated for 96 hrs by MTT assay; assay type: functional, cell-based
[9] = system: NCI-H226; test: Cytotoxicity in human NCI-H226 cells assessed as reduction in cell viability at 0.5 to 20 uM incubated for 96 hrs by MTT assay; assay type: functional, cell-based
[10] = system: NCI-H1650; test: Inhibition of adherence-independent cell growth in human NCI-H1650 cells at 5 uM incubated for 33 days; assay type: functional, cell-based
[11] = system: NCI-H1650; test: Inhibition of adherence-independent cell growth in human NCI-H1650 cells at 10 uM incubated for 33 days; assay type: functional, cell-based
[12] = system: NCI-H146; test: Inhibition of self-renewal capacity in methotrexate insensitive stem-like side-population cells of human NCI-H146 cells assessed as reduction in number of spheres at 2 uM incubated for 3 days after 7 days methotrexate exposure by sphere formation assay; assay type: functional
[13] = system: HCC827; test: Cytotoxicity in erlotinib-resistant human HCC827 cells assessed as reduction in cell viability at 1 to 20 uM by MTT assay; assay type: functional, cell-based
[14] = system: PC-9; test: Cytotoxicity in gefitinib resistant human PC9 cells assessed as reduction in cell viability at 1 to 20 uM by MTT assay; assay type: functional, cell-based
[15] = system: NCI-H1975; test: Cytotoxicity in gefitinib and erlotinib resistant human NCI-H1975 cells assessed as reduction in cell viability at 1 to 10 uM incubated for 72 hrs by MTT assay; assay type: functional, cell-based
[16] = target: Transcriptional coactivator YAP1 (Homo sapiens) (UniProt P46937); test: Inhibition of YAP1 in human NCI-H1650 cells assessed as suppression of Sox2 mRNA expression at 5 to 10 uM incubated for 72 hrs by RT-PCR method; assay type: cell-based
[17] = target: Transcriptional coactivator YAP1 (Homo sapiens) (UniProt P46937); test: Inhibition of YAP1 in human NCI-H1703 cells assessed as suppression of Sox2 mRNA expression at 5 to 10 uM incubated for 72 hrs by RT-PCR method; assay type: cell-based
[18] = target: Transcriptional coactivator YAP1 (Homo sapiens) (UniProt P46937); test: Inhibition of YAP1 in human NCI-H146 cells assessed as suppression of Sox2 mRNA expression at 5 to 10 uM incubated for 72 hrs by RT-PCR method; assay type: cell-based
[19] = system: NCI-H1650; test: Effect on expression of Oct4 mRNA expression in human NCI-H1650 cells at 5 to 10 uM incubated for 72 hrs by RT-PCR method; assay type: cell-based; conditions: nci-h1650, 72 h
[20] = system: NCI-H1650; test: Effect on expression of Nanog mRNA expression in human NCI-H1650 cells at 5 to 10 uM incubated for 72 hrs by RT-PCR method; assay type: cell-based; conditions: nci-h1650, 72 h
[21] = system: NCI-H1703; test: Effect on expression of Oct4 mRNA expression in human NCI-H1703 cells at 5 to 10 uM incubated for 72 hrs by RT-PCR method; assay type: cell-based; conditions: nci-h1703, 72 h
[22] = system: NCI-H1703; test: Effect on expression of Nanog mRNA expression in human NCI-H1703 cells at 5 to 10 uM incubated for 72 hrs by RT-PCR method; assay type: cell-based; conditions: nci-h1703, 72 h
[23] = system: NCI-H146; test: Effect on expression of Oct4 mRNA expression in human NCI-H146 cells at 5 to 10 uM incubated for 72 hrs by RT-PCR method; assay type: cell-based; conditions: nci-h146, 72 h
[24] = system: NCI-H146; test: Effect on expression of Nanog mRNA expression in human NCI-H146 cells at 5 to 10 uM incubated for 72 hrs by RT-PCR method; assay type: cell-based; conditions: nci-h146, 72 h
[25] = system: NCI-H1650; test: Inhibition of YAP1/TEAD2 interaction in human NCI-H1650 cells assessed as suppression of CTGF mRNA expression at 5 to 10 uM incubated for 72 hrs by RT-PCR method; assay type: cell-based
[26] = system: NCI-H1703; test: Inhibition of YAP1/TEAD2 interaction in human NCI-H1703 cells assessed as suppression of CTGF mRNA expression at 5 to 10 uM incubated for 72 hrs by RT-PCR method; assay type: cell-based
[27] = target: Transcriptional coactivator YAP1 (Homo sapiens) (UniProt P46937); test: Inhibition of YAP1 in human NCI-H1650 cells assessed as suppression of fibronectin mRNA expression at 5 to 10 uM incubated for 72 hrs by RT-PCR method; assay type: cell-based
[28] = target: Transcriptional coactivator YAP1 (Homo sapiens) (UniProt P46937); test: Inhibition of YAP1 in human NCI-H1650 cells assessed as suppression of vimentin mRNA expression at 5 to 10 uM incubated for 72 hrs by RT-PCR method; assay type: cell-based
[29] = target: Transcriptional coactivator YAP1 (Homo sapiens) (UniProt P46937); test: Inhibition of YAP1 in human NCI-H1703 cells assessed as suppression of fibronectin mRNA expression at 5 to 10 uM incubated for 72 hrs by RT-PCR method; assay type: cell-based
[30] = target: Transcriptional coactivator YAP1 (Homo sapiens) (UniProt P46937); test: Inhibition of YAP1 in human NCI-H1703 cells assessed as suppression of vimentin mRNA expression at 5 to 10 uM incubated for 72 hrs by RT-PCR method; assay type: cell-based
[31] = system: HUVEC; test: Inhibition of angiogenic tubule formation in HUVEC at 1 to 5 uM incubated for 18 to 24 hrs; assay type: functional, cell-based; conditions: Homo sapiens
[32] = system: NCI-H1703; test: Inhibition of adherence-independent cell growth in human NCI-H1703 cells at 10 uM incubated for 33 days; assay type: functional, cell-based
[33] = system: NCI-H1703; test: Inhibition of adherence-independent cell growth in human NCI-H1703 cells at 5 uM incubated for 33 days; assay type: functional, cell-based
[34] = organism: Homo sapiens; test: Cytotoxicity in human 92-1 cells assessed as reduction in cell viability at 0.5 to 20 uM incubated for 72 hrs by MTT assay; assay type: functional, cell-based
[35] = system: SK-MEL-5; test: Cytotoxicity in human SK-MEL-5 cells assessed as reduction in cell viability at 0.5 to 20 uM incubated for 72 hrs by MTT assay; assay type: functional, cell-based
[36] = organism: Homo sapiens; test: Cytotoxicity in human WM1366 cells assessed as reduction in cell viability at 0.5 to 20 uM incubated for 72 hrs by MTT assay; assay type: functional, cell-based

Sequence of Transcriptional coactivator YAP1 (Homo sapiens) (P46937 whole entry): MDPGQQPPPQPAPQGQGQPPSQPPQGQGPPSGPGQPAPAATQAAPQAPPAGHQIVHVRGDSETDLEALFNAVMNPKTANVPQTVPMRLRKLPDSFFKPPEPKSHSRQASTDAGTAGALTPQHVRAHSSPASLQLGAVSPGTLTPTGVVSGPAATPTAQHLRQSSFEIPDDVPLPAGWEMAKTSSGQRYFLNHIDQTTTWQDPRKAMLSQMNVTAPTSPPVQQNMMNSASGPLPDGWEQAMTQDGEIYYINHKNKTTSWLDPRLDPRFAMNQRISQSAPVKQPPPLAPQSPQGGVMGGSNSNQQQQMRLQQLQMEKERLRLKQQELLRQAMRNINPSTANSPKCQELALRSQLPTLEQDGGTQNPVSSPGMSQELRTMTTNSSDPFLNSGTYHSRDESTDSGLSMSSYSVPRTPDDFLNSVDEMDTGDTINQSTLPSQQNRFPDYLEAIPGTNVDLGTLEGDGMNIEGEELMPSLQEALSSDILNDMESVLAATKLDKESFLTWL

Compound	inhibition [1]	inhibition [2]	inhibition [3]	Activity [4]	Activity [5]	inhibition [6] [%]	inhibition at 5 µM [7] [%]	Activity [8]	Activity [9]	inhibition [10]	inhibition [11]	inhibition [12]	Activity [13]	Activity [14]	Activity [15]	inhibition [16]	inhibition [17]	inhibition [18]	Activity [19]	Activity [20]	further results
COC(=O)[C@H](Cc1ccc(OCc2ccccc2)cc1)NC(=O)CC1CCN(C(=O)CCc2ccc(C#N)cc2)CC1	Active	Active	Active	Active	Active	77.6	80.2	Active	Active	Active	Active	Active	Active	Active	Active	Active	Active	Active	Non-Toxic	Non-Toxic	Activity [21]: Non-Toxic; Activity [22]: Non-Toxic; Activity [23]: Non-Toxic; Activity [24]: Non-Toxic; inhibition [25]: inactive; inhibition [26]: inactive; inhibition [27]: Active; inhibition [28]: Active; inhibition [29]: Active; inhibition [30]: Active; inhibition [31]: Active; inhibition [32]: Active; inhibition [33]: Active; Activity [34]: Active; Activity [35]: Active; Activity [36]: Active
COC(=O)[C@H](Cc1ccc(OCc2ccccc2)cc1)NC(=O)CC1CCN(C(=O)CCc2ccc(Cl)c(Cl)c2)CC1	Active	Active	Active	Active	Active	85.5	99	Active	Active	Active	Active	Active	Active	Active	Active	Active	Active	Active	Non-Toxic	Non-Toxic	Activity [21]: Non-Toxic; Activity [22]: Non-Toxic; Activity [23]: Non-Toxic; Activity [24]: Non-Toxic; inhibition [25]: inactive; inhibition [26]: inactive; inhibition [27]: Active; inhibition [28]: Active; inhibition [29]: Active; inhibition [30]: Active; inhibition [31]: Active; inhibition [32]: Active; inhibition [33]: Active; Activity [34]: Active; Activity [35]: Active; Activity [36]: Active
